The structures appear in SMILES notation.

In data set [1] the test system is HeLa cells. Put plainly: CFTR protein expression assay in HeLa cells (LNPs of Example 2, immunofluorescence). It is filed as cell-based, Human. Particulars: compared to buffer (PBS) control, 5 h transfection, 24 h incubation, N=4 wells. The protocol:
Lipid nanoparticles were prepared using ethanol drop nanoprecipitation followed by solvent exchange into suitable aqueous buffer using dialysis. An exemplary lipid nanoparticle composition can be prepared by a process where lipids are dissolved in ethanol at a concentration of 12.5 mM and molar ratios of 33:15:11:39.5:1.5 (e.g., ionizable lipid:SA46:phospholipid:cholesterol:PL1). Lipid to mRNA is maintained at a N/P ratio of 4.9. Then mRNA is diluted with 25 mM sodium acetate (pH 5.0) and combined with the lipid mixture at a volume ratio of 3:1 (aqueous: ethanol). Resulting formulations are dialyzed against 20 mM tris/8% sucrose/70 mM sodium chloride (pH 7.4) at a volume of 300 times that of the primary product using Slide-A-Lyzer dialysis cassettes (Thermo Scientific, Rockford, IL, USA) with a molecular cutoff of 10 KDa for at least 18 h. The first dialysis is carried out at room temperature in a digital orbital shaker (VWR, Radnor, PA, USA) at 85 rpm for 3 h and then dialyzed overnight at 4° C. Formulations are concentrated using Amicon ultra-centrifugal filters (EMD Millipore, Billerica, MA, USA), passed through a 0.22-μm filter and stored at 4° C. until use. Lipid nanoparticle solutions are typically adjusted to specific mRNA concentrations between 0.1 and 1 mg/mL. LNPs were prepared according to Example 2. To evaluate LNP cellular uptake and protein expression in vitro, HeLa cells from ATCC.org (ATCC CCL-2) are used. The cells are cultured in complete Minimum Essential Medium (MEM) and are plated in 96 well Cell Carrier Ultra plate with PDL coated surface (PerkinElmer) prior to running an experiment. Buffer control (PBS) and LNPs encapsulating cystic fibrosis transmembrane conductance regulator (CFTR) mRNA were dosed with MEM media in the absence of serum (N=4 replicate wells). LNP transfected cells were incubated for 5 h, followed by media removal and supplementation with complete MEM media. Cells were further incubated in complete MEM media overnight (24 h). Following 24 hr incubation, the cells were fixed with PFA and processed for immunofluorescence (IF) using an anti-CFTR rabbit monoclonal antibody. Briefly, the cells were permeabilized with 0.5% TX-100 for 10 min, blocked with 3% bovine serum albumin (BSA)+PBST for 1 hr at room temperature, and incubated with primary anti-CFTR monoclonal antibody overnight at 4° C. Following primary antibody incubation, the cells were incubated with Alexa 488 conjugated secondary antibody for 30 min, and stained with DAPI and HCS CellMask Blue stain. Between different incubation steps the cells were either washed with PBS or PBST. Cells were imaged using Opera Phoenix spinning disk confocal microscope (PerkinElmer), and CFTR protein expression was detected using the 488 nm channel. The image analysis was performed in Harmony 4.9, with main analysis output being CFTR intensity per cell. The results shown in Table 3a show fold-change in CFTR signal intensity per cell compared to buffer (PBS) control (nanoparticle composition: IL1:Lipid Amine:DSPC:Chol:PL1). The results shown in Table 3b show fold-change in CFTR signal intensity per cell compared to buffer (PBS) control (nanoparticle composition: IL1:Lipid Amine:DPPC:Chol:PL1).

The nature of data set [2]: CFTR mRNA nanoparticle biophysical data (DLS, Ribogreen). It is filed as physicochemical. The protocol: Lipids were dissolved in ethanol at a concentration of 24 mg/mL and molar ratios of 49.0:11.2:39.3:0.5 (IL1:DSPC:cholesterol:PEG-DMG-2K) and mixed with the acidification buffer (45 mM acetate buffer at pH 4). The lipid solution and acidification buffer were mixed using a multi-inlet vortex mixer at a 3:7 volumetric ratio of lipid:buffer for mixer 1 and mixer 2 and a 1:3 volumetric ratio of lipid:buffer (25% ethanol) for mixer 3. After a 5 second residence time, the resulting nanoparticles were mixed with 55 mM sodium acetate at pH 5.6 at a volumetric ratio of 5:7 of nanoparticle: buffer. See Table 4a for mixing parameters. The resulting dilute nanoparticles were then buffer exchanged and concentrated using tangential flow filtration (TFF) into a final buffer containing 5 mM sodium acetate pH 5.0. Then a 70% sucrose solution in 5 mM acetate buffer at pH 5 is subsequently added.
The resulting nanoparticles at a lipid concentration of 7.33 mg/mL in 5 mM acetate (pH 5) and 75 g/L sucrose were mixed with mRNA (luciferase or CFTR) at a concentration of 0.625 mg/mL in 42.5 mM sodium acetate pH 5.0, with N: P of 4.93. The nanoparticle solution and […] were mixed using a multi-inlet vortex mixer at a 3:2 volumetric ratio of nanoparticle:mRNA. Once loaded with mRNA, these intermediate nanoparticles underwent a 300 second residence time prior addition of neutralization buffer containing 120 mM TRIS pH 8.12 at a volumetric ratio of 5:1 of nanoparticle: buffer.
For HeLa studies evaluating CFTR protein expression, the intermediate nanoparticle formulation (1 mL, 0.415 mg mRNA) is mixed with a buffer containing 20 mM TRIS (pH 7.5), 0.9 mg/mL PEG-DMG-2K and lipid amine SA52 (647.1 nmol) at a volumetric ratio of 6:1 of nanoparticle: buffer. The resulting nanoparticle suspension underwent concentration using a centrifugal filtration device (100 kDa molecular weight cut-off) and was diluted in running buffer (20 mM TRIS, 14.3 mM sodium acetate, and 32 g/L sucrose, pH 7.5) with a 300 mM NaCl solution to a final buffer matrix containing 70 mM NaCl. […]

For data set [3], the system named is HeLa cells. Put plainly: CFTR protein expression assay in HeLa cells (LNPs analogous to Example 4, lipid amine post-added). It is filed as cell-based, Human. As to conditions: LNP prepared analogous to Example 4 with CFTR mRNA, vs buffer (PBS) control, 5 hr transfection, 24 hr incubation, N=4 wells. The protocol:
Lipid nanoparticle compositions were prepared in a manner analogous to that in example 4. To evaluate LNP cellular uptake and protein expression In Vitro, HeLa cells from ATCC.org (ATCC CCL-2) was used. The cells were cultured in complete Minimum Essential Medium (MEM) and were plated in 96 well Cell Carrier Ultra plate with PDL coated surface (PerkinElmer) prior to running an experiment.
Buffer control (PBS) and LNPs encapsulating cystic fibrosis transmembrane conductance regulator (CFTR) mRNA were dosed with MEM media in the absence of serum (N=4 replicate wells). LNP transfected cells were incubated for 5 hr, followed by media removal and supplementation with complete MEM media. Cells were further incubated in complete MEM media overnight (24 hr).
Following 24 hr incubation, the cells were fixed with PFA and processed for immunofluorescence (IF) using an anti-CFTR rabbit monoclonal antibody. Briefly, the cells were permeabilized with 0.5% TX-100 for 10 min, blocked with 3% bovine serum albumin (BSA)+PBST for 1 hr at room temperature, and incubated with primary anti-CFTR monoclonal antibody overnight at 4° C. […] Cells were imaged using Opera Phoenix spinning disk confocal microscope (PerkinElmer), and CFTR protein expression was detected using the 488 nm channel. […]

Take `CC(C)CCC[C@@H](C)[C@H]1CC[C@H]2[C@@H]3CC=C4C[C@@H](OC(=O)CCC(=O)N5CCN(C)CCN(C)CC5)CC[C@]4(C)[C@H]3CC[C@]12C` [SA52, (3S,8S,9S,10R,13R,14S,17R)-10,13-Dimethyl-17-((R)-6-methylheptan-2-yl)-2,3,4,7,8,9,10,11,12,13,14,15,16,17-tetradecahydro-1H-cyclopenta[a]phenanthren-3-yl 4-(4,7-dimethyl-1,4,7-triazonan-1-yl)-4-oxobutanoate]: the “Average fold-change in CFTR signal intensity per cell ± standard deviation” value is 9.3 ± 1.2 fold-change with HeLa cells [1] (LNP IL1:Lipid Amine:DPPC:Chol:PL1 with CFTR mRNA) and 2.3 ± 0.1 fold-change with HeLa cells [1] (LNP IL1:Lipid Amine:DSPC:Chol:PL1 with CFTR mRNA). The compound further yielded a Diameter in data set [2] (CFTR mRNA nanoparticle with lipid amine (IL1:DSPC:cholesterol:PEG-DMG-2K core), DLS) of 72.4 nm. The compound further yielded a PDI in data set [2] (CFTR mRNA nanoparticle with lipid amine, DLS) of 0.11. In addition, the “% Encapsulation (Ribogreen)” value in data set [2] (CFTR mRNA nanoparticle with lipid amine, Ribogreen assay) is recorded as 96.6%. The “Average fold-change in CFTR signal intensity per cell compared to buffer control ± standard deviation” value with HeLa cells [3] is 3.4 ± 0.5 fold-change.
